Bounds are passed on as bounds.

Broadly, the IC50 is the midpoint of a concentration-inhibition curve. A word on the inhibition: it is the share of the control response that was lost under treatment. Read a high inhibition as a response far below the control.

One assay deals with GSK 3α (Homo sapiens (Human), UniProt P49840). The assay can be described thus: GSK 3α enzyme inhibition (FRET, Z-LYTE, Method 2). The class given is biochemical. To be noted: read-out: IC50 Values for Enzyme Inhibition, GSK3α. In outline: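 Recombinant human GSK3α was preincubated with compound (stocks 4, 0.4, 0.04 or 0.004 μg/mL) at RT, 2 hr for Method 1 and 105 min for Method 2. FRET peptide (8 μM stock) and ATP (40 μM stock) were added for 1 hr, then protease development for 1 hr. IC50 was taken from concentration–response curves.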

Assay [1] relates to PBMCs. The assay can be described thus: IL-2 release in CD3/CD28 stimulated PBMC cells (assay c). The class given is cell-based. Particulars: Homo sapiens, read-out: IC50 Values for Inhibition of Cytokine Release, PBMCs IL-2. In a few lines:
(§1)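 Healthy-donor PBMCs (density-gradient isolated) stimulated on plates pre-coated with anti-CD3 (0.3 μg/mL) and anti-CD28 (3 μg/mL), with compound, for 3 days under normal culture conditions. IL-2 and IFN gamma in supernatants measured by sandwich ELISA; IC50 from dose-response curve.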

For assay [2], the system named is PBMCs. The assay can be described thus: IFN gamma release in CD3/CD28 stimulated PBMC cells (assay c). Format: cell-based. To be noted: Homo sapiens, read-out: IC50 Values for Inhibition of Cytokine Release, PBMCs IFNγ. In a few lines: as §1
In assay [3] the test system is PBMCs. In words: LPS-induced IL-8 release in PBMC cells (assay b). To be noted: Homo sapiens, PBMC; LPS-stimulated PBMCs; read-out: IC50 Values for Inhibition of Cytokine Release, PBMCs IL-8. Format: cell-based, human. In outline: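 Cytokines (TNFα, IL-8) in supernatants were quantified by sandwich ELISA after a 24 h challenge with 1 ng/mL E. coli LPS at 37° C, 5% CO2. Healthy-donor PBMCs had been exposed to compound for 2 h beforehand. IC50 values were fitted from the concentration-response curves.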

Assay [4] deals with p38 MAPKα isoform (MAPK14) (Homo sapiens (Human), UniProt Q16539). In words: p38 MAPKα enzyme inhibition (FRET, Z-LYTE, Method 2). Format: biochemical. In a few lines:
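Z-LYTE FRET: p38 MAPKα (80 ng/mL for Method 1, 200 ng/mL for Method 2, pre-dilution) preincubated 2 hr RT with compound (4–0.004 μg/mL solutions), activity read via MAPKAP-K2 phosphorylation after 1 hr RT and 1 hr protease development. Coumarin/fluorescein ratio gives phosphorylation; % inhibition versus uninhibited control, IC50 from concentration-response curve.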

For a further assay, the target named is c-Src (Homo sapiens (Human), UniProt P12931). The assay can be described thus: c-Src enzyme inhibition (FRET, Z-LYTE). The class given is biochemical. In outline:
(§2)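 Each kinase is exposed to test compound for 2 hr at RT before substrate and ATP (pre-mix levels: c-Src 800 μM, Syk 60 μM) start a 1 hr reaction. A 1 hr protease step removes signal from non-phosphorylated peptide; inhibition against uninhibited control yields IC50.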

The target of another assay is Syk (Homo sapiens (Human), UniProt P43405). The assay can be described thus: Syk enzyme inhibition (FRET, Z-LYTE). The class given is biochemical. In outline:
as §2

Assay [5] relates to PBMCs. In words: Cell mitosis assay in PBMCs (assay g). To be noted: Homo sapiens, PBMC, test compound 5 μg/mL. Format: cell-based. In a few lines:
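Metaphase arrest with 0.1 μg/mL demecolcine during the final 2 hr of a 20 hr compound exposure, which follows 48 hr of 2% PHA stimulation of healthy-donor human PBMCs. Mitotic lymphocytes counted by flow cytometry (anti-phospho-histone 3 plus propidium iodide). Inhibition expressed relative to 0.5% DMSO.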

Sequence of p38 MAPKα isoform (MAPK14) (Q16539 whole entry, canonical isoform): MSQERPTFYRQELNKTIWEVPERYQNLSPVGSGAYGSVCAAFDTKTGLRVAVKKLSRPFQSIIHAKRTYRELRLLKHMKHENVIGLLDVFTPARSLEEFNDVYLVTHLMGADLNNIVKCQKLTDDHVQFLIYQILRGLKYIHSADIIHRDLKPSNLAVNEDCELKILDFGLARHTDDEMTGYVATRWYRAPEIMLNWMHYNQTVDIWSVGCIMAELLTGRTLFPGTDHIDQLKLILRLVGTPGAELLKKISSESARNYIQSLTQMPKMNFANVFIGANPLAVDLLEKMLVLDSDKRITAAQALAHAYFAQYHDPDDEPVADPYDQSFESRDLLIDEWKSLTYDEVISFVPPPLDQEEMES
Sequence of c-Src (P12931 whole entry, looked up): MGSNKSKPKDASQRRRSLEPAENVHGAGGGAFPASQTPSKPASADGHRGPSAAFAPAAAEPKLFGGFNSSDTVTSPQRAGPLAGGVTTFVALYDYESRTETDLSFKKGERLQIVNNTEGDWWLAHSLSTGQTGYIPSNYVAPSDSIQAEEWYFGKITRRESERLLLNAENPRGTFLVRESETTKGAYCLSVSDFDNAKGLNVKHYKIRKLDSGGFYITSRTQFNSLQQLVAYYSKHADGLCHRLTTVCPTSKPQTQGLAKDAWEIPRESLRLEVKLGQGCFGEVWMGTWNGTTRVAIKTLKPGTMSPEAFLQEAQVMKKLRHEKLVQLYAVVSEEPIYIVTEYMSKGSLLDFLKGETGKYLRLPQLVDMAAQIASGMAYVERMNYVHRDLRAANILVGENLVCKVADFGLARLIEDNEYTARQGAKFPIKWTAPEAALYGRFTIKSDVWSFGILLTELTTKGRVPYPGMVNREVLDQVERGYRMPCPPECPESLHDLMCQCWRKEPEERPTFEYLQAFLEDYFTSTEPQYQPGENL
Sequence of GSK 3α (P49840 whole entry): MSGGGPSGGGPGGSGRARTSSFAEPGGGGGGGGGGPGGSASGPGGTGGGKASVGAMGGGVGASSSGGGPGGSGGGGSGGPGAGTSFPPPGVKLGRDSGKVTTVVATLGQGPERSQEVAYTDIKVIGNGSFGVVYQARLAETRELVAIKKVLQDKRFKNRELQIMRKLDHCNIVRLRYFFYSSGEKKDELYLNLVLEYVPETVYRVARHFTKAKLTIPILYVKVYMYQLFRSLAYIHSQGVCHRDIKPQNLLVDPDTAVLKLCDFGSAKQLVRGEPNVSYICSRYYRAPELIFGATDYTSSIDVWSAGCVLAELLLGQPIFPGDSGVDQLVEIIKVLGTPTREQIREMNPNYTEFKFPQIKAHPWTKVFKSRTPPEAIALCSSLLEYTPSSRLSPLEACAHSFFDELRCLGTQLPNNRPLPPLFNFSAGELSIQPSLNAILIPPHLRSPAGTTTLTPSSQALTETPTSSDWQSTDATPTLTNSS

As to `COCCOCCOCCOc1cc(Nc2cc(Oc3ccc(NC(=O)Nc4cc(C(C)(C)C)cc(C(=O)NCCN5CCOCC5)c4OC)c4ccccc34)ccn2)cc(OC)c1` [Example 16, 5-(tert-Butyl)-2-methoxy-3-(3-(4-((2-((3-methoxy-5-(2-(2-(2-methoxyethoxy)ethoxy)ethoxy)-phenyl)amino)pyridin-4-yl)oxy)naphthalen-1-yl)ureido)-N-(2-morpholinoethyl)benzamide], the IC50 at GSK 3α came out at 5.67 µM; in the assay with PBMCs [1] it was 0.0077 µM; in the assay with PBMCs [2], 0.0043 µM; in the assay with PBMCs [3] it was 0.0017 µM; in assay [4], 0.23 µM; against c-Src, 0.04 µM. At Syk, this compound showed an IC50 of 0.093 µM. This compound had an inhibition at 5 µg/mL in the assay on PBMCs [5] of 43.3%.
Consider `COCCOCCOCCOc1cc(Nc2cc(Oc3ccc(NC(=O)Nc4cc(C(C)(C)C)cc([S+](C)[O-])c4OC)c4ccccc34)ccn2)cc(OC)c1` (stereo not drawn) [Example 17, 1-(5-(tert-Butyl)-2-methoxy-3-(methylsulfinyl)phenyl)-3-(4-((2-((3-methoxy-5-(2-(2-(2-methoxyethoxy)ethoxy)ethoxy)phenyl)amino)pyridin-4-yl)oxy)naphthalen-1-yl)urea], for which the IC50 stood at 10.3 µM on GSK 3α; 0.0305 µM in the assay with PBMCs [1]; 0.0049 µM in the assay with PBMCs [2]; 0.0009 µM in the assay on PBMCs [3]; 0.068 µM in assay [4]; 0.03 µM at c-Src. On Syk, this compound had a 50% inhibitory concentration (IC50) of 0.134 µM. In the assay with PBMCs [5], this compound had an inhibition at 5 µg/mL of 41.3%.
For the compound `COc1c(CS(C)(=O)=O)cc(C(C)(C)C)cc1NC(=O)Nc1ccc(Oc2ccnc(Nc3ccccc3)c2)c2ccccc12` [Example 19, 1-(5-(tert-Butyl)-2-methoxy-3-((methylsulfonyl)methyl)phenyl)-3-(4-((2-(phenylamino)pyridin-4-yl)oxy)naphthalen-1-yl)urea], the IC50 was above 16 µM on GSK 3α; 0.257 µM in the assay on PBMCs [1]; 0.0268 µM with PBMCs [2]; 0.0062 µM in the assay on PBMCs [3]; 0.208 µM in assay [4]; 0.145 µM on c-Src. This compound showed an IC50 against Syk of 0.189 µM. In the assay on PBMCs [5], this compound displayed an inhibition at 5 µg/mL of 36.9%.
With `COc1cc(Nc2nccc(Oc3ccc(NC(=O)Nc4cc(C(C)(C)C)cc(OCP(C)(C)=O)c4OC)c4ccccc34)n2)cc(OC)c1` [Example 20, 1-(5-(tert-Butyl)-3-((dimethylphosphoryl)methoxy)-2-methoxyphenyl)-3-(4-((2-((3,5-dimethoxyphenyl)amino)pyrimidin-4-yl)oxy)naphthalen-1-yl)urea], the IC50 at GSK 3α came out at 2.06 µM; in the assay on PBMCs [1] it was 0.0105 µM; in the assay on PBMCs [2], 0.0079 µM; in the assay with PBMCs [3] it was 0.0025 µM; in assay [4], 0.368 µM; against c-Src, 0.033 µM. At Syk, this compound gave an IC50 of 0.188 µM. Also, the inhibition at 5 µg/mL in the assay on PBMCs [5] amounted to 55%.
Turning to `COc1c(CP(C)(C)=O)cc(C(C)(C)C)cc1NC(=O)Nc1ccc(Oc2ccnc(Nc3ccccc3)c2)c2ccccc12` [Example 24, 1-(5-(tert-Butyl)-3-((dimethylphosphoryl)methyl)-2-methoxyphenyl)-3-(4-((2-(phenylamino)-pyridin-4-yl)oxy)naphthalen-1-yl)urea], the IC50 worked out at 7.45 µM at GSK 3α; 0.276 µM in the assay with PBMCs [1]; 0.064 µM in the assay with PBMCs [2]; 0.0031 µM in the assay on PBMCs [3]; 0.22 µM in assay [4]; 0.168 µM at c-Src. In addition, at Syk, the IC50 was 0.289 µM. The compound also displayed an inhibition at 5 µg/mL with PBMCs [5] of 37.9%.
Take `COc1c(C[S+](C)[O-])cc(C(C)(C)C)cc1NC(=O)Nc1ccc(Oc2ccnc(Nc3ccccc3)c2)c2ccccc12` (stereo not drawn) [Example 25, 1-(5-(tert-Butyl)-2-methoxy-3-((methylsulfinyl)methyl)phenyl)-3-(4-((2-(phenylamino)pyridin-4-yl)oxy)naphthalen-1-yl)urea]: the IC50 at GSK 3α is 9.62 µM; in the assay on PBMCs [1], 0.175 µM; in the assay with PBMCs [2], 0.0295 µM; in the assay on PBMCs [3], 0.0053 µM; in assay [4] it was 0.323 µM; against c-Src, 0.224 µM. The same compound gave an IC50 on Syk of 0.724 µM. Besides, at 5 µg/mL the inhibition in the assay with PBMCs [5] was 24.5%.
Turning to `COc1c(NC(=O)Nc2ccc(Oc3ccnc(Nc4cc(C)cc(C)c4)c3)c3ccccc23)cc(C(C)(C)C)cc1P(C)(C)=O` [Example 28, 1-(5-(tert-Butyl)-3-(dimethylphosphoryl)-2-methoxyphenyl)-3-(4-((2-((3,5-dimethylphenyl)-amino)pyridin-4-yl)oxy)naphthalen-1-yl)urea], the IC50 was found to be 8.26 µM on GSK 3α; 0.0633 µM in the assay with PBMCs [1]; 0.0014 µM with PBMCs [2]; 0.0025 µM in the assay on PBMCs [3]; 0.254 µM in assay [4]; 0.048 µM at c-Src. On Syk, this compound showed an IC50 of 0.157 µM. In the assay with PBMCs [5], 5 µg/mL produced 54.4% inhibition.
In the case of `COc1cc(Nc2cc(Oc3ccc(NC(=O)Nc4cc(C(C)(C)C)cc(CC(N)=O)c4OC)c4ccccc34)ccn2)cc(OC)c1` [Example 30, 2-(5-(tert-Butyl)-3-(3-(4-((2-((3,5-dimethoxyphenyl)amino)pyridin-4-yl)oxy)naphthalen-1-yl)ureido)-2-methoxyphenyl)acetamide], the IC50 at GSK 3α was above 15.4 µM; with PBMCs [1], 0.0945 µM; in the assay with PBMCs [2] it was 0.0064 µM; with PBMCs [3] it was 0.0017 µM; in assay [4], 0.132 µM; on c-Src, 0.06 µM. On Syk, this compound came in with an IC50 of 0.708 µM. Moreover, in the assay with PBMCs [5], the inhibition at 5 µg/mL was found to be 48.7%.
On to `COc1cccc(Nc2cc(Oc3ccc(NC(=O)Nc4cc(C(C)(C)C)cc(CC(N)=O)c4OC)c4ccccc34)ccn2)c1` [Example 33, 2-(5-(tert-Butyl)-2-methoxy-3-(3-(4-((2-((3-methoxyphenyl)amino)pyridin-4-yl)oxy)naphthalen-1-yl)ureido)phenyl)acetamide], for which the IC50 is 10.5 µM at GSK 3α; 0.117 µM in the assay on PBMCs [1]; 0.011 µM in the assay on PBMCs [2]; 0.0017 µM in the assay on PBMCs [3]; 0.109 µM in assay [4]; 0.063 µM against c-Src. The compound also showed an IC50 against Syk of 0.519 µM. The inhibition at 5 µg/mL in the assay on PBMCs [5] was 31.3%.
For `COc1c(CNC(C)=O)cc(C(C)(C)C)cc1NC(=O)Nc1ccc(Oc2ccnc(Nc3ccccc3)c2)c2ccccc12` [Example 35, N-(5-(tert-Butyl)-2-methoxy-3-(3-(4-((2-(phenylamino)pyridin-4-yl)oxy)naphthalen-1-yl)ureido)benzyl)acetamide], the IC50 at GSK 3α was above 11.8 µM; in the assay with PBMCs [1], 0.221 µM; in the assay on PBMCs [2] it was 0.0109 µM; in the assay with PBMCs [3] it was 0.0034 µM; in assay [4], 0.294 µM; on c-Src it was 0.112 µM. At Syk, this compound showed an IC50 of 0.369 µM. In the assay on PBMCs [5], this compound gave an inhibition at 5 µg/mL of 50.6%.
Regarding `COc1cc(Nc2cc(Oc3ccc(NC(=O)Nc4cc(C(C)(C)C)cc(P(C)(C)=O)c4OC)c4ccccc34)ccn2)cc(C(N)=O)c1` [Example 37, 3-((4-((4-(3-(5-(tert-butyl)-3-(dimethylphosphoryl)-2-methoxyphenyl)ureido)-naphthalen-1-yl)oxy)pyridin-2-yl)amino)-5-methoxybenzamide], the IC50 is 2.16 µM on GSK 3α; 0.048 µM with PBMCs [1]; 0.0007 µM with PBMCs [2]; 0.0017 µM in the assay with PBMCs [3]; 0.062 µM in assay [4]; 0.032 µM at c-Src. Also, the midpoint of inhibition against Syk, the IC50, lay at 0.347 µM. The same compound yielded an inhibition at 5 µg/mL in the assay with PBMCs [5] of 43.2%.
Regarding `COc1cc(Nc2cc(Oc3ccc(NC(=O)Nc4cc(C(C)(C)C)cc([S+](C)[O-])c4OC)c4ccccc34)ccn2)cc(OC)c1` (stereo not drawn) [Example 40, 1-(5-(tert-Butyl)-2-methoxy-3-(methylsulfinyl)phenyl)-3-(4-((2-((3,5-dimethoxyphenyl)amino)pyridin-4-yl)oxy)naphthalen-1-yl)urea], the IC50 is above 15.3 µM at GSK 3α; 0.179 µM in the assay on PBMCs [1]; 0.0052 µM in the assay on PBMCs [2]; 0.0027 µM in the assay with PBMCs [3]; 0.302 µM in assay [4]; 0.078 µM on c-Src. Besides, on Syk, the IC50 is 0.201 µM. In the assay with PBMCs [5], this compound had an inhibition at 5 µg/mL of 44.3%.

These data come from patent US9890185B2, “Urea derivatives useful as kinase inhibitors” (Respivert Limited, priority 2013, dated 2018).
